{
  "source": "patent US20020182736A1",
  "about": "“Methods to measure lipid antioxidant activity” (TRUSTEES OF TUFTS COLLEGE, priority 2001, published 2002)",
  "key": {"[1]": {"settings": "cited from earlier work"}, "[2]": {"test_system": "aqueous peroxyl radicals generated by AAPH in human plasma", "assay": "Consumption of endogenous plasma antioxidants induced by AAPH (HPLC)", "settings": "for Residual Amount (%) of Cryptoxanthin / Residual Amount (%) of Lutein / Residual Amount (%) of Lycopene / Residual Amount (%) of Zeaxanthin / Residual Amount (%) of β-Carotene: AAPH 20 mM for 120 min", "method": "In a second similar experiment, other antioxidants were studied. […] Echinenone in ethanol was added as an internal standard."}, "[3]": {"test_system": "lipid plasma compartment oxidation", "assay": "Lipid plasma compartment oxidation, BODIPY 581/591 green fluorescence", "experimental": "Plasma oxidation was measured fluorometrically using two different fluorescent probes: DCFH and BODIPY. DCFH-DA and BODIPY stock solutions were prepared in EtOH and dimethylsulfoxide, respectively, stored under nitrogen at −20° C. and used within two months. The final plasma dilution was 1:5 (v/v).\nIn the experiments using β-carotene, to avoid the filtering effect due to the carotenoid, the oxidation product of BODIPY was also detected at λex=520 and at λem-540 nm. The fluorescence measurements were carried out using a Perkin Elmer spectrofluorometer (model 650-10s) with 1 cm path length fluorescence cuvettes.\nBriefly, β-carotene (dissolved in stabilized THF, 10 mg/ml) or α-tocopherol (4.3 mg/ml in EtOH) were added to plasma to reach a final concentration of 50 μM; the samples were then vortexed for 30 sec and incubated at 37±1° C. for 1 to 6 hr under nitrogen. […] Controls were prepared in the same way using solvent only.\nThe effect of adding the membrane soluble antioxidants, α-tocopherol (in EtOH) and β-carotene (in THF), pre-incubated with plasma, was studied. […] Values are mean±SD of five independent experiments. Statistical analysis: one-way ANOVA with Tukey's post test; *p<0.05, **p<0.01.\nTo monitor the aqueous phase oxidizability, AAPH was used as a hydrophilic radical generator and coupled to DCFH was used as the indicator."}, "[4]": {"test_system": "aqueous plasma compartment oxidation", "assay": "Aqueous plasma compartment oxidation, DCFH to DCF fluorescence", "set-up": "species or system human", "settings": "for protective effect on aqueous compartment oxidation: 180 min of incubation", "method": "The final plasma dilution was 1:5 (v/v).\nDCFH was prepared from DCFH-DA by basic hydrolysis. Briefly 500 μl of DCFH-DA stock solution (1 mM) was mixed with 2 ml of NaOH (0.01 N at 4° C.) for 20 minutes while protected from the light. The mixture was then neutralized with 2 ml of HCl (0.01 N), diluted with PBS to a final concentration of 10 μM and stored in ice for no longer than 8 hrs (working solution); an aliquot of 100 μl was added to 200 μl of plasma and then diluted to a final volume of 1 ml with PBS. […] The excitation wavelength (λex) was set at […] (slit 5 nm) and emission (λem) at 520 nm (slit 5 nm).\nValues are mean±SD of five independent experiments. […] Samples were incubated at 37° C. in the dark and at fixed times the DCF content measured by fluorescence (λex=502 nm, λem=520 nm)."}, "[5]": {"assay": "ESR quenching of α-tocopheroxyl radical generated from α-tocopherol and DPPH", "type": "biochemical", "method": "α-TOC+DPPH→α-TOC-O.+DPPHH [1]\nFor sample preparation, α-tocopherol (900 μM) and DPPH (600 μM) in ethanol solution were mixed for 20 sec and 50 μl of the reaction mixture transferred into a capillary ESR tube. (−)-Epigallocatechin-(3)-gallate (EGCG) was added to the mixture immediately after DPPH decolorization (30 sec after DPPH addition)."}, "[6]": {"test_system": "lipid peroxyl radicals generated by MeO-AMVN in human plasma", "assay": "Consumption of endogenous plasma antioxidants induced by MeO-AMVN (HPLC)", "settings": "for Residual Amount (%) of Cryptoxanthin / Residual Amount (%) of Lutein / Residual Amount (%) of Lycopene / Residual Amount (%) of Zeaxanthin / Residual Amount (%) of β-Carotene: MeO-AMVN 2 mM for 60 min", "experimental": "After an overnight fast (10-12 h), blood from two healthy donors was collected in ethylenediaminetetraacetic acid (EDTA)-containing tubes. In order to reduce the variability of different donors, blood samples from these two subjects were collected weekly for the duration of the experiment. Immediately after collection, the samples were placed on ice and protected from light. Plasma was obtained by centrifugation at 800 g for 20 min at 4° C. and immediately used for the in vitro studies.\nIn the presence of 10-20 mM of AAPH, the flux of aqueous radicals calculated on the basis of the known rate of free radical generation from AAPH at 37° C.\nIn order to obtain homogeneous incorporation, the lipid soluble initiators were added slowly to the samples with a micro-syringe (10 μl) with stirring. The samples were then vortexed for 10 sec and incubated at 37±1° C. under aerobic conditions.\nIn a second similar experiment, other antioxidants were studied. […] A 100 μl aliquot of the reaction mixture was extracted for β-carotene and α-tocopherol analysis. Echinenone in ethanol was added as an internal standard. The mixture was extracted with CHCl3:CH3OH (2:1 v/v) containing 0.2% BHT and hexane containing 0.1% BHT, dried under nitrogen, redissolved in ethanol, and injected into an HPLC system with a C30 column (3 μm, 150×4.6 mm, YMC, Wilmington, N.C.).\nFor water-soluble antioxidant measurement, the mixtures were immediately deproteinized with perchloric acid (250 mM).\nResults are expressed as percentages with respect to control samples prepared without the azo-compounds."}, "[7]": {"settings": "37° C; cited from earlier work"}},
  "note": "pIC50: −log10 of the molar value. Values joined by “and” are separate entries in the source; they are usually repeats but may differ in a detail not shown here. Equal entries are not always repeated. “Also recorded” adds a separate entry of the source.",
  "data": [
    {"smiles": "O=C(O[C@@H]1Cc2c(O)cc(O)cc2O[C@@H]1c1cc(O)c(O)c(O)c1)c1cc(O)c(O)c(O)c1", "note": "[EGCG, (−)-Epigallocatechin-(3)-gallate]", "values": [
      {"measurement": "redox potential E", "setting": "[1]; E(EGCG-O., H+/EGCG-OH), E(A−., H+/AH−)", "result": 0.48, "unit": "V"},
      {"measurement": "ΔE to reduce tocopheroxyl radical", "setting": "[1]; physiological pH", "result": 0.06, "unit": "V"},
      {"measurement": "Residual Amount (%) of Cryptoxanthin", "setting": "[2]; EGCG 0.5 μM", "result": "28.46 ± 3.35", "unit": "%"},
      {"measurement": "Residual Amount (%) of Lutein", "setting": "[2]; EGCG 0.5 μM", "result": "26.05 ± 4.26", "unit": "%"},
      {"measurement": "Residual Amount (%) of Lycopene", "setting": "[2]; EGCG 0.5 μM", "result": "9.35 ± 5.18", "unit": "%"},
      {"measurement": "Residual Amount (%) of Zeaxanthin", "setting": "[2]; EGCG 0.5 μM", "result": "25.61 ± 6.53", "unit": "%"},
      {"measurement": "Residual Amount (%) of β-Carotene", "setting": "[2]; EGCG 0.5 μM", "result": "41.51 ± 6.64", "unit": "%"},
      {"measurement": "Residual Amount (%) of Cryptoxanthin", "setting": "[2]; EGCG 1 μM", "result": "36.21 ± 1.71", "unit": "%"},
      {"measurement": "Residual Amount (%) of Lutein", "setting": "[2]; EGCG 1 μM", "result": "40.64 ± 5.30", "unit": "%"},
      {"measurement": "Residual Amount (%) of Lycopene", "setting": "[2]; EGCG 1 μM", "result": "18.06 ± 2.44", "unit": "%"},
      {"measurement": "Residual Amount (%) of Zeaxanthin", "setting": "[2]; EGCG 1 μM", "result": "48.78 ± 4.81", "unit": "%"},
      {"measurement": "Residual Amount (%) of β-Carotene", "setting": "[2]; EGCG 1 μM", "result": "54.38 ± 4.86", "unit": "%"},
      {"measurement": "Residual Amount (%) of Cryptoxanthin", "setting": "[2]; EGCG 5 μM", "result": "48.88 ± 2.08", "unit": "%"},
      {"measurement": "Residual Amount (%) of Lutein", "setting": "[2]; EGCG 5 μM", "result": "56.05 ± 4.42", "unit": "%"},
      {"measurement": "Residual Amount (%) of Lycopene", "setting": "[2]; EGCG 5 μM", "result": "25.26 ± 1.02", "unit": "%"},
      {"measurement": "Residual Amount (%) of Zeaxanthin", "setting": "[2]; EGCG 5 μM", "result": "58.89 ± 5.10", "unit": "%"},
      {"measurement": "Residual Amount (%) of β-Carotene", "setting": "[2]; EGCG 5 μM", "result": "58.63 ± 3.30", "unit": "%"},
      {"measurement": "Residual Amount (%) of Cryptoxanthin", "setting": "[2]; EGCG 10 μM", "result": "56.45 ± 5.00", "unit": "%"},
      {"measurement": "Residual Amount (%) of Lutein", "setting": "[2]; EGCG 10 μM", "result": "63.13 ± 8.15", "unit": "%"},
      {"measurement": "Residual Amount (%) of Lycopene", "setting": "[2]; EGCG 10 μM", "result": "32.30 ± 4.24", "unit": "%"},
      {"measurement": "Residual Amount (%) of Zeaxanthin", "setting": "[2]; EGCG 10 μM", "result": "62.36 ± 11.92", "unit": "%"},
      {"measurement": "Residual Amount (%) of β-Carotene", "setting": "[2]; EGCG 10 μM", "result": "64.35 ± 6.37", "unit": "%"},
      {"measurement": "effect on consumption of ascorbic acid and uric acid", "setting": "[2]; EGCG 0.5-10 μM, 20 mM AAPH", "result": "ineffective"},
      {"measurement": "protective effect on lipid compartment oxidation", "setting": "[3]; EGCG 0.5 μM, MeO-AMVN 2 mM, 180 min of incubation", "result": "13.01±0.56", "unit": "%"},
      {"measurement": "protection of lipid compartment oxidation", "setting": "[3]; EGCG 10 μM, MeO-AMVN 2 mM, 180 min of incubation", "result": "68±2.3", "unit": "%"},
      {"measurement": "lowest / starting effective concentration, lipid compartment", "setting": "[3]; MeO-AMVN 2 mM, 180 min", "result": "0.5 µM and 0.5 to 1 µM"},
      {"measurement": "pIC50", "setting": "[3]; read-out: IC50 in lipid compartment, MeO-AMVN 2 mM, after 180 min of incubation", "result": 5.36},
      {"measurement": "concentration at which activity starts, aqueous compartment", "setting": "[4]; AAPH 20 mM, 180 min", "result": 0.25, "unit": "µM"},
      {"measurement": "pIC50", "setting": "[4]; AAPH 20 mM, after 180 min of incubation", "result": 6.14},
      {"measurement": "protective effect on aqueous compartment oxidation", "setting": "[4]; EGCG 10 μM, AAPH 20 mM", "result": "93.02±2.02", "unit": "%"},
      {"measurement": "protective effect on aqueous compartment oxidation", "setting": "[4]; EGCG 0.25 AM, AAPH 20 mM", "result": "20.25±0.34", "unit": "%"},
      {"measurement": "antioxidant efficiency in the aqueous in respect to the lipid domain", "setting": "[4]; from IC50 after 180 min", "result": "six times greater"},
      {"measurement": "pIC50", "setting": "[5]; 60 sec after the beginning of the reaction, read-out: IC50 quenching of α-TOC-O. ESR signal", "result": 4.92},
      {"measurement": "% inhibition of ESR signal", "setting": "[5]; EGCG 2 μM, 60 sec after the beginning of the reaction", "result": "8±1.3", "unit": "%"},
      {"measurement": "quenching effect on ESR signal", "setting": "[5]; EGCG 25 μM", "result": "almost complete disappearance"},
      {"measurement": "Residual Amount (%) of Cryptoxanthin", "setting": "[6]; EGCG 0.5 μM", "result": "54.38 ± 2.74", "unit": "%"},
      {"measurement": "Residual Amount (%) of Lutein", "setting": "[6]; EGCG 0.5 μM", "result": "32.57 ± 4.14", "unit": "%"},
      {"measurement": "Residual Amount (%) of Lycopene", "setting": "[6]; EGCG 0.5 μM", "result": "20.15 ± 3.22", "unit": "%"},
      {"measurement": "Residual Amount (%) of Zeaxanthin", "setting": "[6]; EGCG 0.5 μM", "result": "47.69 ± 5.85", "unit": "%"},
      {"measurement": "Residual Amount (%) of β-Carotene", "setting": "[6]; EGCG 0.5 μM", "result": "51.95 ± 1.68", "unit": "%"},
      {"measurement": "Residual Amount (%) of Cryptoxanthin", "setting": "[6]; EGCG 1 μM", "result": "52.36 ± 0.79", "unit": "%"},
      {"measurement": "Residual Amount (%) of Lutein", "setting": "[6]; EGCG 1 μM", "result": "33.75 ± 3.94", "unit": "%"},
      {"measurement": "Residual Amount (%) of Lycopene", "setting": "[6]; EGCG 1 μM", "result": "19.76 ± 2.62", "unit": "%"},
      {"measurement": "Residual Amount (%) of Zeaxanthin", "setting": "[6]; EGCG 1 μM", "result": "49.64 ± 2.14", "unit": "%"},
      {"measurement": "Residual Amount (%) of β-Carotene", "setting": "[6]; EGCG 1 μM", "result": "50.15 ± 3.35", "unit": "%"},
      {"measurement": "Residual Amount (%) of Cryptoxanthin", "setting": "[6]; EGCG 5 μM", "result": "45.16 ± 3.09", "unit": "%"},
      {"measurement": "Residual Amount (%) of Lutein", "setting": "[6]; EGCG 5 μM", "result": "44.64 ± 5.50", "unit": "%"},
      {"measurement": "Residual Amount (%) of Lycopene", "setting": "[6]; EGCG 5 μM", "result": "23.56 ± 1.78", "unit": "%"},
      {"measurement": "Residual Amount (%) of Zeaxanthin", "setting": "[6]; EGCG 5 μM", "result": "44.31 ± 0.94", "unit": "%"},
      {"measurement": "Residual Amount (%) of β-Carotene", "setting": "[6]; EGCG 5 μM", "result": "57.73 ± 0.54", "unit": "%"},
      {"measurement": "% α-tocopherol remaining", "setting": "[6]; EGCG 10 μM, MeO-AMVN", "result": "96.71±1.46", "unit": "%"},
      {"measurement": "Residual Amount (%) of Cryptoxanthin", "setting": "[6]; EGCG 10 μM", "result": "41.84 ± 1.60", "unit": "%"},
      {"measurement": "Residual Amount (%) of Lutein", "setting": "[6]; EGCG 10 μM", "result": "40.36 ± 4.03", "unit": "%"},
      {"measurement": "Residual Amount (%) of Lycopene", "setting": "[6]; EGCG 10 μM", "result": "26.72 ± 0.94", "unit": "%"},
      {"measurement": "Residual Amount (%) of Zeaxanthin", "setting": "[6]; EGCG 10 μM", "result": "42.67 ± 2.04", "unit": "%"},
      {"measurement": "Residual Amount (%) of β-Carotene", "setting": "[6]; EGCG 10 μM", "result": "59.13 ± 3.72", "unit": "%"},
      {"measurement": "sparing of carotenoids depletion", "setting": "[6]; EGCG 0.5-10 μM, MeO-AMVN", "result": "ineffective; also recorded: failed to prevent"}
    ]},
    {"smiles": "CC(C)(N=NC(C)(C)C(=N)N)C(=N)N.Cl.Cl", "note": "[AAPH, 2,2′-azobis (2-amidinopropane) dihydrochloride]", "values": [
      {"measurement": "rate of free radical generation Ri", "setting": "[7]", "result": "1.36×10^−6 [AAPH] mol/liter/sec"},
      {"measurement": "delay of BODIPY oxidation in plasma", "setting": "[3]; 20 mM AAPH", "result": 180, "unit": "min"},
      {"measurement": "start of propagation phase of DCFH oxidation in plasma", "setting": "[4]; 10 mM AAPH", "result": 180, "unit": "min"},
      {"measurement": "start of propagation phase / lag phase of DCFH oxidation in plasma", "setting": "[4]; 20 mM AAPH, dihydrochloride", "result": "90 min and 120 min"}
    ]}
  ]
}
